Assay results from ChEMBL document CHEMBL1201862, “PubChem BioAssay data set” (2004).
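All cell lines were grown in 96-well plates and treated with compound for 48 hours. Here, GI50 denotes the concentration required for 50% inhibition of growth.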 Activity calls are given as the source filed them. No stated cut-off is given here; in the data, active = GI50 up to about 1.1 µM and inactive = higher.

Legend:
Experiment in all cases: growth of human tumour cells (NCI), 48 h
[1] = test system: KM-20L2
[2] = test system: HOP-18
[3] = test system: HCT-116
[4] = test system: NCI-H23
[5] = test system: UACC-62
[6] = test system: SF-268
[7] = test system: SK-OV-3
[8] = test system: SF-295
[9] = test system: SK-MEL-28
[10] = test system: OVCAR-5
[11] = test system: TK-10
[12] = test system: Malme-3M
[13] = test system: LXFL 529
[14] = test system: XF498
[15] = test system: CCRF-CEM
[16] = test system: IGROV-1
[17] = test system: SK-MEL-2
[18] = test system: UACC-257
[19] = test system: MOLT-4
[20] = test system: NCI-H522
[21] = test system: DLD-1
[22] = test system: HL-60
[23] = test system: LOX IMVI
[24] = test system: SN12C
[25] = test system: SF-539
[26] = test system: SNB-75
[27] = test system: COLO 205
[28] = test system: SNB-78
[29] = test system: OVCAR-4
[30] = test system: EKVX
[31] = test system: HCT-15
[32] = test system: A549
[33] = test system: SR
[34] = test system: DMS-114
[35] = test system: SK-MEL-5
[36] = test system: CAKI-1
[37] = test system: OVCAR-8
[38] = test system: A498
[39] = test system: NCI-H226
[40] = test system: DMS-273
[41] = test system: ACHN
[42] = test system: K562
[43] = test system: HOP-62
[44] = test system: 786-0
[45] = test system: UO-31
[46] = test system: NCI-H460
[47] = test system: SW-620
[48] = test system: HOP-92
[49] = test system: RPMI-8226
[50] = test system: HT-29
[51] = test system: RXF 393
[52] = test system: U-251
[53] = test system: SNB-19
[54] = test system: M14
[55] = test system: KM12
[56] = test system: HCC 2998
[57] = test system: MCF7
[58] = test system: OVCAR-3
[59] = test system: NCI/ADR-RES
[60] = test system: M19-MEL

In the case of `Cc1ccc([N+](=O)[O-])cc1NC(=O)/C(=N/NC(=S)NN)C1SC(=S)NC1=O` (configuration not stated), the GI50 [1] is reported as > 100 µM (inactive), the GI50 [2] is reported as > 100 µM (inactive) and the GI50 [3] is reported as > 100 µM (inactive). For the same compound, the GI50 [4] was > 100 µM (inactive), the GI50 [5] was > 100 µM (inactive) and the GI50 [6] was > 100 µM (inactive). The GI50 [7] was > 100 µM (inactive), the GI50 [8] was > 100 µM (inactive) and the GI50 [9] was > 100 µM (inactive). The GI50 [10] was > 100 µM (inactive), the GI50 [11] was > 100 µM (inactive) and the GI50 [12] was > 100 µM (inactive). For the same compound, the GI50 [13] was > 100 µM (inactive), the GI50 [14] was > 100 µM (inactive) and the GI50 [15] was 40.2 µM (inactive). The GI50 [16] was > 100 µM (inactive), the GI50 [17] was > 100 µM (inactive) and the GI50 [18] was > 100 µM (inactive). For the same compound, the GI50 [19] was 78.9 µM (inactive), the GI50 [20] was > 100 µM (inactive) and the GI50 [21] was > 100 µM (inactive). The GI50 [22] was 78.3 µM (inactive), the GI50 [23] was > 100 µM (inactive) and the GI50 [24] was > 100 µM (inactive). For the same compound, the GI50 [25] was > 100 µM (inactive), the GI50 [26] was > 100 µM (inactive) and the GI50 [27] was > 100 µM (inactive). For the same compound, the GI50 [28] was > 100 µM (inactive), the GI50 [29] was > 100 µM (inactive) and the GI50 [30] was > 100 µM (inactive). The GI50 [31] was > 100 µM, the GI50 [32] was > 100 µM (inactive) and the GI50 [33] was > 100 µM (inactive). For the same compound, the GI50 [34] was > 100 µM (inactive), the GI50 [35] was > 100 µM (inactive) and the GI50 [36] was > 100 µM (inactive). The GI50 [37] was > 100 µM (inactive), the GI50 [38] was > 100 µM (inactive) and the GI50 [39] was > 100 µM (inactive). The GI50 [40] was > 100 µM (inactive), the GI50 [41] was > 100 µM (inactive) and the GI50 [42] was > 100 µM (inactive). The GI50 [43] was > 100 µM (inactive), the GI50 [44] was > 100 µM (inactive) and the GI50 [45] was > 100 µM (inactive). For the same compound, the GI50 [46] was > 100 µM (inactive), the GI50 [47] was > 100 µM (inactive) and the GI50 [48] was > 100 µM (inactive). The GI50 [49] was > 100 µM (inactive), the GI50 [50] was > 100 µM (inactive) and the GI50 [51] was > 100 µM (inactive). For the same compound, the GI50 [52] was > 100 µM (inactive), the GI50 [53] was > 100 µM (inactive) and the GI50 [54] was > 100 µM (inactive). The GI50 [55] was > 100 µM (inactive).
For `CC(NCCS(=O)(=O)O)C(=O)O` (configuration not stated), the GI50 [1] was > 100 µM (inactive), the GI50 [2] was > 100 µM (inactive) and the GI50 [3] was > 100 µM (inactive). The GI50 [4] was > 100 µM (inactive), the GI50 [5] was > 100 µM (inactive) and the GI50 [6] was > 100 µM (inactive). For the same compound, the GI50 [7] was > 100 µM (inactive), the GI50 [8] was > 100 µM (inactive) and the GI50 [9] was > 100 µM (inactive). The GI50 [10] was > 100 µM (inactive), the GI50 [12] was > 100 µM (inactive) and the GI50 [14] was > 100 µM (inactive). For the same compound, the GI50 [15] was > 100 µM (inactive), the GI50 [16] was > 100 µM (inactive) and the GI50 [17] was > 100 µM (inactive). The GI50 [18] was > 100 µM (inactive), the GI50 [56] was > 100 µM (inactive) and the GI50 [19] was > 100 µM (inactive). For the same compound, the GI50 [20] was > 100 µM (inactive), the GI50 [21] was > 100 µM (inactive) and the GI50 [22] was > 100 µM (inactive). For the same compound, the GI50 [23] was > 100 µM (inactive), the GI50 [24] was > 100 µM (inactive) and the GI50 [57] was > 100 µM (inactive). For the same compound, the GI50 [25] was > 100 µM (inactive), the GI50 [26] was > 100 µM (inactive) and the GI50 [27] was > 100 µM (inactive). The GI50 [28] was 99.8 µM (inactive), the GI50 [29] was > 100 µM (inactive) and the GI50 [30] was > 100 µM (inactive). For the same compound, the GI50 [58] was > 45.6 µM (inactive), the GI50 [31] was > 100 µM and the GI50 [32] was > 100 µM (inactive). For the same compound, the GI50 [34] was > 100 µM (inactive), the GI50 [35] was > 100 µM (inactive) and the GI50 [36] was > 100 µM (inactive). For the same compound, the GI50 [37] was > 100 µM (inactive), the GI50 [38] was > 77.3 µM (inactive) and the GI50 [39] was > 100 µM (inactive). For the same compound, the GI50 [40] was > 100 µM (inactive), the GI50 [42] was > 100 µM (inactive) and the GI50 [43] was > 100 µM (inactive). The GI50 [45] was > 100 µM (inactive), the GI50 [46] was > 100 µM (inactive) and the GI50 [59] was > 100 µM (inactive). The GI50 [47] was > 100 µM (inactive), the GI50 [48] was > 100 µM (inactive) and the GI50 [49] was > 100 µM (inactive). The GI50 [50] was > 100 µM (inactive), the GI50 [51] was > 100 µM (inactive) and the GI50 [52] was > 100 µM (inactive). The GI50 [60] was > 100 µM (inactive), the GI50 [53] was > 100 µM (inactive) and the GI50 [55] was > 100 µM (inactive).
`Cc1cccc2nc3c(C(=O)NCCN(C)C)cccc3cc12` was tested, and the GI50 [1] was 1.41 µM (inactive), the GI50 [2] was 2.04 µM (inactive) and the GI50 [3] was 0.668 µM (active). For the same compound, the GI50 [4] was 2.07 µM (inactive), the GI50 [5] was 1.68 µM (inactive) and the GI50 [6] was 1.68 µM (inactive). The GI50 [7] was 2.58 µM (inactive), the GI50 [8] was 1.51 µM (inactive) and the GI50 [9] was 1.85 µM (inactive). The GI50 [10] was 2.27 µM (inactive), the GI50 [12] was 1.38 µM (inactive) and the GI50 [14] was 1.58 µM (inactive). The GI50 [15] was 1.25 µM (inactive), the GI50 [16] was 2.31 µM (inactive) and the GI50 [17] was 1.88 µM (inactive). The GI50 [18] was 0.893 µM (active), the GI50 [56] was 2.05 µM (inactive) and the GI50 [19] was 0.337 µM (active). For the same compound, the GI50 [21] was 1.42 µM (inactive), the GI50 [22] was 1.14 µM (inactive) and the GI50 [23] was 1.26 µM (inactive). The GI50 [24] was 1.19 µM (inactive), the GI50 [57] was 2.2 µM (inactive) and the GI50 [25] was 2.01 µM (inactive). For the same compound, the GI50 [26] was 2.25 µM (inactive), the GI50 [27] was 0.681 µM (active) and the GI50 [28] was 2.62 µM (inactive). The GI50 [29] was 1.83 µM (inactive), the GI50 [30] was 1.99 µM (inactive) and the GI50 [58] was 2.05 µM (inactive). For the same compound, the GI50 [31] was 2.33 µM, the GI50 [32] was 1.09 µM (active) and the GI50 [34] was 1.31 µM (inactive). For the same compound, the GI50 [35] was 1.64 µM (inactive), the GI50 [36] was 0.07 µM (active) and the GI50 [37] was 1.07 µM (active). For the same compound, the GI50 [38] was 1.37 µM (inactive), the GI50 [39] was 1.07 µM (active) and the GI50 [40] was 0.929 µM (active). For the same compound, the GI50 [42] was 1.8 µM (inactive), the GI50 [43] was 1.72 µM (inactive) and the GI50 [45] was 1.27 µM (inactive). The GI50 [46] was 0.705 µM (active), the GI50 [59] was 1.95 µM (inactive) and the GI50 [47] was 1 µM (active). For the same compound, the GI50 [48] was 0.776 µM (active), the GI50 [49] was 0.789 µM (active) and the GI50 [50] was 0.791 µM (active). The GI50 [51] was 1.45 µM (inactive), the GI50 [52] was 2.52 µM (inactive) and the GI50 [60] was 1.52 µM (inactive). For the same compound, the GI50 [53] was 0.94 µM (active) and the GI50 [55] was 2.29 µM (inactive).
